Results taken from US11225479B2, “Bicyclic inhibitors of histone deacetylase” (Alkermes, Inc., priority 2017, dated 2022).
Where “and” joins values, the source holds several entries; their conditions need not be identical. Equal values may be shown once.

Columns and labels:
[1] = test system: human myeloid progenitors (CFU-GM); test: Myeloid CFU assay; type: cell-based; conditions: 336 h, 14 days culture, human bone marrow cells, read-out: Myeloid % control @ 10 uM dose
Procedure: (§1) Compounds were tested to evaluate the potential effects on human erythroid and myeloid progenitors using colony forming cell assays. Clonogenic progenitors of human erythroid (CFU-E, BFU-E), granulocyte-monocyte (CFU-GM) and multipotential (CFU-GEMM) lineages were assessed in a semi-solid methylcellulose-based media formulation containing rhIL-3 (10 ng/mL), rhGM-SCF (10 ng/mL), rhSCF (50 ng/mL) and Epo (3 U/mL).
(§2) Normal human bone marrow light density cells derived from normal bone marrow (NorCal Biologics, California), were stored in the gaseous phase of liquid nitrogen (−152° C.) until required for the assay. On the day of the experiment, the cells were thawed rapidly, the contents of each vial was diluted in 10 mL of Iscove's modified Dulbecco's medium containing 10% fetal bovine serum (IMDM+10% FBS) and washed by centrifugation (approximately 1200 r.p.m. for 10 minutes, room temperature). The supernatant was discarded and the cell pellets resuspended in a known volume of IMDM+10% FBS. A cell count (3% glacial acetic acid) and viability assessment (trypan blue exclusion test) was performed for the bone marrow sample.
(§3) On the day of the experiment, the compounds were dissolved in DMSO to a stock concentration of 10 mM. Serial dilutions were prepared from the stock concentration to achieve concentrations of 2 and 0.4 mM. When added to the methylcellulose-based media at 1:1000 (v/v), the final test concentrations of 10, 2 and 0.4 μM were achieved. Additionally, 5-FU was evaluated at 1.0, 0.1 and 0.01 μg/mL.
(§4) Clonogenic progenitors of the human erythroid (CFU-E and BFU-E) and myeloid (CFU-GM) lineages were set up in the methylcellulose-based media formulations described above. All compounds were added to the medium to give the final desired concentrations (10, 2 and 0.4 μM). 5-Fluorouracil (Sigma Aldrich) was used as a positive control for progenitor proliferation (inhibition of colony growth) and was introduced to the human bone marrow cultures at 1.0, 0.1, and 0.01 μg/mL. Solvent control cultures (containing no compound but 0.1% DMSO) as well as standard controls (containing no compound and no DMSO) were also initiated.
(§5) Human myeloid and erythroid progenitor assays were initiated at 2.0×10^4 cells per culture. Following 14 days in culture, myeloid and erythroid colonies were assessed microscopically and scored by trained personnel. The colonies were divided into the following categories based on size and morphology: CFU-E, BFU-E, CFU-GM and CFU-GEMM.
(§6) The mean±one standard deviation of three replicate cultures was calculated for progenitors of each category (CFU-E, BFU-E, etc.). Two-tailed t-tests were performed to assess if there was a difference in the number of colonies generated between solvent control and treated cultures. Due to the potential subjectivity of colony enumeration, a p value of less than 0.01 is deemed significant. To calculate the concentration of 50% inhibition of colony growth (IC50) for each compound, a dose response curve was generated plotting the log of the compound concentration versus the percentage of control colony growth using XLfit software (IDBS). The concentration of 50% inhibition of colony growth (IC50) was calculated based on the sigmoid curve fit using Dose-Response, One-Site Model formula: y=A+[(B−A)/(1+((C/x)^D))], where A=the initial value (baseline response), B=maximum response, C=center (drug concentration that provokes a response halfway between A and B) and D=slope of the curve at midpoint. Further, plots and additional dose response curves were generated using GraphPad Prism 7.0.
(§7) Erythroid (CFU-E and BFU-E), myeloid (CFU-GM) and multi-potential (CFU-GEMM) colony enumeration was performed by trained personnel. The distribution of colony types as well as general colony and cellular morphology was analyzed. For statistical analysis colony numbers in compound treated cultures were compared to the solvent control cultures. […]

[2] = Brain and plasma exposure following IV and PO administration to mice; type: in vivo; conditions: for Brain Cmax @ 10 mpk / Projected free brain @ 10 mpk: 10 mg/kg PO; for brain Cmax exposure, fold higher than comparator 1 / projected free brain concentration, fold higher than comparator 1: comparator 1 data scaled for comparison
Procedure: Compounds were dosed in mice at either 10 mg/kg or 30 mg/kg PO, and were dosed at 1 mg/kg IV. Three animals for collection at each time point for plasma via bleeding at 0.25, 0.5, 1, 4, 12 and 24 h. Terminal bleeding for plasma and sampling for brain at 0.25, 0.5, 1, 4, 12 and 24 h (also three animals per brain exposure time point group). Total of six time points for plasma and six time points for brain.
Plasma: The animal was restrained manually at the designated time points, approximately 150 μL blood/time point was collected into K2EDTA tube via retro orbital puncture or cardiac puncture under anesthesia with Isoflurane. The blood sample was centrifuged (2000 g, 4° C., 5 min) to generate plasma within 30 min after bleeding.
Brain: At the designated time points, a mid-line incision was made in the animals scalp and the skin was retracted. Using small bone cutters and rongeurs, removed the skull overlying the brain. Removed the brain using a spatula and rinse with cold saline. Placed the brain in screw-top tubes, and then stored the tubes under −70° C. until analysis.

[3] = test system: human erythroid progenitors (CFU-E, BFU-E); test: Erythroid CFU assay; type: cell-based; conditions: for activity at 10 µM: Bone marrow cell, 336 h, 14 days culture, human bone marrow cells, read-out: Erythroid % control @ 10 uM dose
Procedure: as §1, §2, §3, §4, §5, §6, §7

SMILES	activity at 10 µM [1] [%]	activity at 10 µM [3] [%]	Brain Cmax @ 10 mpk [2]	other results
Nc1ccc(-c2ccc(F)cc2)nc1NC(=O)N1Cc2cncnc2C1 [Comparator 1, reference compound]	83.9	47.1	–	Brain Cmax @ 10 mpk (*scaled for comparison) ([2]; dosed 30 mg/kg PO, scaled to 10 mg/kg PO): 158* ng/g
Cn1cc2c(n1)CN(C(=O)Nc1nc(-c3ccc(F)cc3)ccc1N)C2 [Comparator 2, reference compound]	30.4	15.7	–	–
Cc1cc2c(cn1)CN(C(=O)Nc1nc(-c3ccc(F)cc3)ccc1N)C2 [Comparator 3, reference compound]	66.1	25.7	–	–
COCc1cc2c(cn1)CN(C(=O)Nc1nc(-c3ccc(F)cc3)ccc1N)C2 [Comparator 5, reference compound]	58.9	22.9	–	–
COCCn1cc2c(n1)CN(C(=O)Nc1nc(-c3ccc(F)cc3)ccc1N)C2 [Comparator 6, reference compound]	39	28	–	–
Nc1ccc(-c2cccs2)nc1NC(=O)N1Cc2cncnc2C1 [Comparator 6, reference compound]	–	–	100 ng/g	Projected free brain @ 10 mpk [2]: 0.103 µM
Nc1ccc(-c2ccc(F)cc2)nc1NC(=O)N1Cc2cn(C3COC3)nc2C1 [Compound 1]	54	37	636 ng/g	–
Cc1ncc2c(n1)CN(C(=O)Nc1nc(-c3ccc(F)s3)ccc1N)C2 [Compound 2]	87	40	760 ng/g	–
CCc1ncc2c(n1)CN(C(=O)Nc1nc(-c3cccs3)ccc1N)C2 [Compound 3]	89.4	46.6	526 ng/g	–
Cc1ncc(-c2ccc(N)c(NC(=O)N3Cc4cn(C)nc4C3)n2)s1 [Compound 4]	96	53	324 ng/g	–
O=c1[nH]cc(F)c(=O)[nH]1 [Compound 5-FU, 5-Fluorouracil, reference compound]	–	–	–	inhibitory effects on colony growth (positive control for toxicity) ([3]; 1.0, 0.1 and 0.01 μg/mL, erythroid and myeloid assays): exactly as expected
Cc1ncc(-c2ccc(N)c(NC(=O)N3Cc4cn(CC(F)F)nc4C3)n2)s1 [Compound 5]	–	–	277 ng/g	–
Cc1nc2c(n1C)CN(C(=O)Nc1nc(-c3ccc(F)cc3)ccc1N)C2 [Compound 7]	–	–	102 ng/g	–
CCc1cc2c(cn1)CN(C(=O)Nc1nc(-c3cccnc3)ccc1N)C2 [Compound 8]	102	98	279 ng/g	–
COCCn1cc2c(n1)CN(C(=O)Nc1nc(-c3ccc(F)cc3F)ccc1N)C2 [Compound 9]	62.8	40.4	1533 ng/g and 1383 ng/g	–
Cn1cc2c(n1)CN(C(=O)Nc1nc(-c3cccnc3)ccc1N)C2 [Compound 11]	103	94	369 ng/g	Projected free brain @ 10 mpk [2]: 0.664 µM
Cc1cc2c(cn1)CN(C(=O)Nc1nc(-c3cccnc3)ccc1N)C2 [Compound 12]	104	93	237 ng/g	–
Cc1ncc2c(n1)CN(C(=O)Nc1nc(-c3ccc(F)cc3)ccc1N)C2 [Compound 14]	112	53	633 ng/g	brain Cmax exposure, fold higher than comparator 1 [2]: 4 fold; projected free brain concentration, fold higher than comparator 1 [2]: 4 fold
CCc1ncc2c(n1)CN(C(=O)Nc1nc(-c3ccc(F)cc3)ccc1N)C2 [Compound 17]	79.1	59.6	1241 ng/g	brain Cmax exposure, fold higher than comparator 1 [2]: ~7 fold; projected free brain concentration, fold higher than comparator 1 [2]: 5 fold
